Source: PubChem BioAssay (NCI)
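Assay format: 96-well plates, 48-hour exposure. TGI marks complete inhibition of growth.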

System: P388 leukemia
Assay: NCI tumour cell line growth inhibition, 48 h

Row | Compound | TGI [µM]
1 | OCC1OC(n2cnc3c2NC=NC[C@H]3O)CC1O (some centres not stated) | 500
2 | COC1=C2C[C@@H](C)C[C@@H](OC)[C@@H](O)[C@H](C)/C=C(\C)[C@@H](OC(N)=O)[C@H](OC)/C=C\C=C(/C)C(=O)NC(=CC1=O)C2=O | 0.48
